The source of these data is patent publication US5457092A, “Methods of promoting bone growth in mammals comprising administration of modified parathyroid hormone” (Gesellschaft fur Biotechnologische Forschung mbH (GBF), priority 1987, dated 1995).

Assay [1] relates to osteoblast enriched rat embryo calvaria cell cultures. Briefly: CK specific activity in rat embryo calvaria cell cultures. As to conditions: for CK specific activity, effect of fragment (experimental value/control value): 100 nM, 24 h, control 457 ± 46 nmol/min per mg of protein; for increase of CK activity (in words): treated for 24 h. The assay is classed as cell-based. The procedure: (§1) FIG. 10 is a graphical representation showing the dose dependent stimulation by bPTH (1-84) of osteoblast enriched rat embryo calvaria cell cultures. Experimental details for the determination of cyclic AMP (.quadrature.) (15 min after stimulation) and incorporation of [^3 H]thymidine into DNA ( ) and CK ( ) specific activity (24 h after stimulation) are given below. The results are means ±S.E.M., N≥5. In several cases the S.E.M. was less than the size of the symbol. Control values were: cyclic AMP, 25±5 pmol/mg of protein; DNA, 240±30 c.p.m./μg of DNA; CK, 200±20 nmol/min per mg of protein. Statistical significance of differences between treated and corresponding control groups by Student's T test: *P<0.05; **P<0.01.
(§2) Rat calvaria cultures were treated with fragments of PTH derived from the central portion of the molecule.

Assay [2] shares this test system. Kind of assay: DNA synthesis ([3H]thymidine incorporation) in rat embryo calvaria cell cultures. The assay is classed as cell-based. The following applies: 100 nM; 24 h; control 624 ± 73 c.p.m./μg of DNA. The procedure:
as §1
On the technique in general: Dividing cells build labelled thymidine or BrdU into new DNA.

Assay [3] deals with chondrocytes from sterna of 16-day-old embryonic chicks. Briefly: Stimulation of DNA synthesis in chondrocytes by PTH fragments (Table 1). Type of assay: cell-based, chick. The following applies: for [^3 H]thymidine incorporation: 4 h; for E/C: stimulated / non-induced control cells. The procedure:
Chondrocytes were isolated from sterna of 16-day-old embryonic chicks according to J. Biol. Chem., 261 (1986) 7997-8001 (10; Yasui et al.) with some modifications. Collagenase was dissolved in Hanks' balanced salt solution (0.4 mM Na2 HPO4, 140 mN NaCl, 5.3 mM KCl, 0.4 mM MgSO4, 1.3 mM CaCl2, 0.4 mM KH2 PO4, 0.5 mM MglC2, 5 mM glucose, 0.05% gentamicin) at a concentration of 286 units/ml. Sterna were treated repeatedly for 30 min with collagenase solution at 37° C. Cells first released by this procedure were discarded because of their very poor responsiveness towards PTH. The collagenase treatment was subsequently repeated leading to a highly homogenous cell population of chondrocytes. The cells obtained by a second collagenase treatment were collected by centrifugation (1000 rpm, 10 min), washed twice with medium (Dulbecco's modified Eagle's medium, GIBCO, supplemented with NaHCO3 (45 mM), glutamine (2 mM), penicillin G/streptomycin (65 mg/1 and 100 mg/l, respectively), Hepes (10 mM, pH 7.2), and FCS (10% v/v) and counted.
The DNA synthesis rate was assayed in monolayer culture by the incorporation of ]^3 H]thymidine into perchloric acid-precipitable material. […] After 17 h, the medium was replaced by 200 μl of serum-free medium. After 4 days, chondrocytes were incubated for 4 h with the appropriate effector and 1μ Ci of [^3 H]thymidine. Subsequently, medium was removed and the cells were washed twice with 200 μl of phosphate-buffered saline (PBS: 137 mM NaCl, 2.7 mN KCl, 1.5 mM KH2 PO4, 0.8 mN Na2 HPO4, pH 7.0). Then cells were lysed by 100 μl of 2% (v/v) Nonidet P- 40 and 2% (w/v) sodium dodecyl sulfate treatment and the perchloric acid-insoluble material was precipitated by adding an equal volume of ice-cold 2% (w/v) perchloric acid in the presence of 1% herring sperm DNA as carrier. After storage for 10 min at -20° C., the precipitated material of each well was transferred to glass fiber filters with a Scatron--As semiautomatic cell harvester. Filters were dried at 80° C. for 20 min, transferred into scintillation vials, and 2 ml of scintillation mixture (scintillator 299; United Technology Pachard) were added. Radioactivity of the samples was determined with a β counter (Minimax; United Technology Pachard). Each test consisted of 5 up to 10 identically treated wells and was repeated at least twice with freshly prepared chondrocytes.
The incorporation of [^3 H]thymidine by non-induced control cells and by stimulated cells is shown by C and E, respectively. The results shown mean ±S.E. for n parallel cell cultures.

Assay [4] concerns osteoblast enriched rat embryo calvaria cell cultures. Briefly: Cyclic AMP production in rat embryo calvaria cell cultures. The assay is classed as cell-based. The following applies: 100 nM; 15 min; control 29 ± 2.9 pmol/mg of protein. The procedure:
as §1, §2

Assay [5] relates to ROS 17/2.8 osteoblast-like cells. Kind of assay: Cyclic AMP production in ROS 17/2.8 osteoblast-like cells. Type of assay: cell-based, rat. The procedure: When cultures of the widely used model for osteoblasts, the osteoblast-likeclone of rat osteosarcoma, ROS 17/2.8 (Endocrinology (Baltimore), 107 (1980) 1494-1503=12; Majeska et al.), were incubated with full-length PTH and PTH fragments (Table 4), cyclic AMP production was stimulated only by bPTH(1-84) and hPTH(1-34), whereas hPTH(25-39), hPTH(27-48), hPTH(28-48) and hPTH(34-47) were ineffective.

The test system is the same in assay [6]. Briefly: DNA synthesis in ROS 17/2.8 osteoblast-like cells. The assay is classed as cell-based, rat.
Assay [7] has the same test system. Kind of assay: CK specific activity in ROS 17/2.8 osteoblast-like cells. Type of assay: cell-based, rat.

On to “hPTH(30-47): PTH fragment 30-47, human source; comparative example (DVHNFVALGAPLAPRDAG; Parathyroid hormone; UniProt P01270 61-78, looked up, fragment) [reference compound]”, for which the “CK specific activity, effect of fragment (experimental value/control value)” value in assay [1] is recorded as 1.27 ± 0.03. Also, in assay [1], the “increase of CK activity (in words)” value is “slightly stimulatory”. The “[3H)Thymidine incorporation, effect of fragment (experimental value/control value)” value in assay [2] is recorded as 1.86 ± 0.18. The “[^3 H]thymidine incorporation” value in assay [3] (5.1 × 10^-5 mol/l, control 139 ± 6) is given as 248 ± 31 cpm; in assay [3] (5.1 × 10^-6 mol/l, control 139 ± 6), 193 ± 20 cpm; in assay [3] (5.1 × 10^-7 mol/l, control 139 ± 6), 222 ± 19 cpm; in assay [3] (5.1 × 10^-8 mol/l, control 139 ± 6) it was 169 ± 23 cpm. The E/C in assay [3] (5.1 × 10^-5 mol/l) is reported as 1.78; in assay [3] (5.1 × 10^-6 mol/l) it was 1.39; in assay [3] (5.1 × 10^-7 mol/l) it was 1.60; in assay [3] (5.1 × 10^-8 mol/l) it was 1.22. In assay [4], the “Cyclic AMP concentration, effect of fragment (experimental value/control value)” value is given as 1.00 ± 0.22.
With “hPTH(29-47): PTH fragment 29-47, human source (QDVHNFVALGAPLAPRDAG; Parathyroid hormone; UniProt P01270 60-78, looked up, fragment)”, the “CK specific activity, effect of fragment (experimental value/control value)” value in assay [1] came to 1.67 ± 0.13. In assay [1], the “increase of CK activity (in words)” value is listed as “stimulatory but to a lesser degree”. The “[3H)Thymidine incorporation, effect of fragment (experimental value/control value)” value in assay [2] worked out at 1.96 ± 0.14. For the same substance, the “[^3 H]thymidine incorporation” value in assay [3] (4.8 × 10^-5 mol/l, control 139 ± 6) is 273 ± 30 cpm; in assay [3] (4.8 × 10^-6 mol/l, control 139 ± 6), 225 ± 20 cpm; in assay [3] (4.8 × 10^-7 mol/l, control 139 ± 6), 273 ± 33 cpm; in assay [3] (4.8 × 10^-8 mol/l, control 139 ± 6) it was 138 ± 15 cpm. Further, the E/C in assay [3] (4.8 × 10^-5 mol/l) is 1.96; in assay [3] (4.8 × 10^-6 mol/l), 1.62; in assay [3] (4.8 × 10^-7 mol/l), 1.96; in assay [3] (4.8 × 10^-8 mol/l), 0.99. Also, the “Cyclic AMP concentration, effect of fragment (experimental value/control value)” value in assay [4] is 0.57 ± 0.47.
Turning to “hPTH(31-47): PTH fragment 31-47, human source; comparative example (VHNFVALGAPLAPRDAG; Parathyroid hormone; UniProt P01270 62-78, looked up, fragment) [reference compound]”, the “increase of CK activity (in words)” value in assay [1] is “inactive”. Further, the “[^3 H]thymidine incorporation” value in assay [3] (5.3 × 10^-5 mol/l, control 139 ± 6) worked out at 176 ± 8 cpm; in assay [3] (5.3 × 10^-6 mol/l, control 139 ± 6) it was 178 ± 35 cpm; in assay [3] (5.3 × 10^-7 mol/l, control 139 ± 6) it was 178 ± 24 cpm; in assay [3] (5.3 × 10^-8 mol/l, control 139 ± 6) it was 165 ± 20 cpm. Moreover, the E/C in assay [3] (5.3 × 10^-5 mol/l) is on record as 1.27; in assay [3] (5.3 × 10^-6 mol/l), 1.28; in assay [3] (5.3 × 10^-7 mol/l), 1.28; in assay [3] (5.3 × 10^-8 mol/l), 1.19.
Regarding “hPTH(28-39): PTH fragment 28-39, human source (LQDVHNFVALGA; Parathyroid hormone; UniProt P01270 59-70, looked up, fragment)”, the “[^3 H]thymidine incorporation” value in assay [3] (7.6 × 10^-4 mol/l, control 324 ± 18) came to 387 ± 41 cpm; in assay [3] (7.6 × 10^-5 mol/l, control 324 ± 18), 399 ± 47 cpm; in assay [3] (7.6 × 10^-6 mol/l, control 324 ± 18) it was 324 ± 45 cpm; in assay [3] (7.6 × 10^-7 mol/l, control 324 ± 18) it was 473 ± 74 cpm; in assay [3] (7.6 × 10^-8 mol/l, control 324 ± 18), 319 ± 39 cpm. Moreover, the E/C in assay [3] (7.6 × 10^-4 mol/l) came out at 1.19; in assay [3] (7.6 × 10^-5 mol/l), 1.23; in assay [3] (7.6 × 10^-6 mol/l), 1.00; in assay [3] (7.6 × 10^-7 mol/l), 1.46; in assay [3] (7.6 × 10^-8 mol/l), 0.97.
“hPTH(33-47): PTH fragment 33-47, human source; inactive fragment (NFVALGAPLAPRDAG; Parathyroid hormone; UniProt P01270 64-78, looked up, fragment) [reference compound]”: in assay [1], the “increase of CK activity (in words)” value is “inactive”.
In the case of “hPTH(27-48): PTH fragment 27-48 as printed; probably a misprint of hPTH(28-47) (KLQDVHNFVALGAPLAPRDAGS; Parathyroid hormone; UniProt P01270 58-79, looked up, fragment)”, the “stimulation of cyclic AMP production (in words)” value in assay [5] is listed as “ineffective”.
As to “hPTH(29-39): PTH fragment 29-39 as printed; probably a misprint of hPTH(25-39) (QDVHNFVALGA; Parathyroid hormone; UniProt P01270 60-70, looked up, fragment)”, in assay [1], the “increase of CK activity (in words)” value is given as “maximally active”.
As to “hPTH(32-47): PTH fragment 32-47 as printed; at this place probably a misprint of hPTH(28-47) (HNFVALGAPLAPRDAG; Parathyroid hormone; UniProt P01270 63-78, looked up, fragment)”, the “increase of CK activity (in words)” value in assay [1] is “maximally active”.
Regarding “hPTH(24-47): PTH fragment 24-47 as printed; probably a misprint of hPTH(34-47) (LRKKLQDVHNFVALGAPLAPRDAG; Parathyroid hormone; UniProt P01270 55-78, looked up, fragment)”, the “stimulation of DNA synthesis (in words)” value in assay [6] was “stimulated by all of the cell fragments tested except”. Further, the “stimulation of CK activity (in words)” value in assay [7] is on record as “stimulated by all of the cell fragments tested except”.
